From patent EP3070175A1, “TEST FOR DETERMINING SUSCEPTIBILITY OR RESISTANCE TO POLYMYXINS IN ENTEROBACTERIACEAE” (Université de Fribourg, priority 2015, dated 2016)

Tested on: S. marcescens
Assay: MIC determination, broth microdilution in Cation-Adjusted Mueller-Hinton broth (CLSI)
Type: cell-based, Serratia marcescens
Settings: strain Smar
Protocol: Determination of MIC values were performed using the reference technique (broth microdilution in Cation-Adjusted Mueller-Hinton broth) according to the CLSI guidelines. Polymyxin B and colistin (Sigma-Aldrich, Saint-Louis) were tested over a range dilution from 0.12 to 128 µg/ml and 5.10^5 CFU/ml of bacteria in each well was used. Following the EUCAST breakpoints (http://www.eucast.org/), strains with a colistin MICs of ≤ 2 µg/ml were categorized as susceptible, although those with MICs of > 2 µg/ml were resistant.
All experiments were repeated in triplicate.

Substance: colistin sulphate
- Colistin resistance (EUCAST breakpoints): + (those with MICs of > 2 µg/ml were resistant)
- Colistin MIC (Natural resistance): >128 µg/mL
